Key:
Assay type in all cases: in vivo
[1] = tested on: redroot pigweed (Amaranthus retroflexus L.); experiment: Test Example 2: soil application on the day after sowing, growth inhibition rate on 14th day; conditions: active ingredient amount 31 g/ha, 14th day after application
Outline: (§1)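 Read-out is visual percent growth inhibition 14 days post-application, scaled from 0 (as non-treated) to 100 (complete kill). Treatment: soil application by small sprayer the day after sowing, compound formulations diluted in water equivalent to 1,000 L/ha.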

corn (Zea mays L.) [2] = experiment: as above; conditions: active ingredient amount 31 g/ha, 14th day after application
Outline: as §1

[3] = tested on: barnyardgrass (Echinochloa crus-qalli L.); experiment: as above; conditions: active ingredient amount 31 g/ha, 14th day after application
Outline: as §1

rice (Oryza sativa L.) [4] = experiment: as above; conditions: active ingredient amount 31 g/ha, 14th day after application
Outline: as §1

[5] = tested on: soybean (Glycine max Merr.); experiment: as above; conditions: active ingredient amount 31 g/ha, 14th day after application
Outline: as §1

[6] = tested on: crabgrass (Digitaris sanquinalis L.); experiment: as above; conditions: active ingredient amount 31 g/ha, 14th day after application
Outline: as §1

[7] = tested on: wheat (Triticum aestivum L.); experiment: as above; conditions: active ingredient amount 31 g/ha, 14th day after application
Outline: as §1

[8] = tested on: green foxtail (Setaria viridis L.); experiment: as above; conditions: active ingredient amount 31 g/ha, 14th day after application
Outline: as §1

[9] = tested on: velvetleaf (Abutilon theophrasti MEDIC.); experiment: as above; conditions: active ingredient amount 31 g/ha, 14th day after application
Outline: as §1

[10] = tested on: prickly sida (Sida spinosa L.); experiment: as above; conditions: active ingredient amount 31 g/ha, 14th day after application
Outline: as §1

[11] = tested on: redroot pigweed (Amaranthus retroflexus L.); experiment: Test Example 1: foliar treatment, growth inhibition rate on 14th day; conditions: active ingredient amount 31 g/ha, 14th day after application, visual, 0 = non-treated, 100 = complete kill
Outline: (§2)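 Visual 0–100% inhibition scoring (100 = complete kill) at 14 days after foliar treatment of soil-grown seedlings at species-specific leaf stages, with the compound sprayed as a wettable powder or emulsifiable concentrate dilution.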

corn (Zea mays L.) [12] = experiment: as above; conditions: active ingredient amount 31 g/ha, 14th day after application, visual, 0 = non-treated, 100 = complete kill
Outline: as §2

[13] = tested on: wild oat (Avena fatua L.); experiment: as above; conditions: active ingredient amount 31 g/ha, 14th day after application, visual, 0 = non-treated, 100 = complete kill
Outline: (§3)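 Compounds applied once to leaves of pot-grown plants; wild oat at 0.4–1.2 leaf, foxtail 0.5–3.2, rice 0.2–2.7, soybean primary leaf. Inhibition estimated by eye on day 14.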

[14] = tested on: barnyardgrass (Echinochloa crus-qalli L.); experiment: as above; conditions: active ingredient amount 31 g/ha, 14th day after application, visual, 0 = non-treated, 100 = complete kill
Outline: as §2

[15] = tested on: crabgrass (Digitaria sanquinalis L.); experiment: as above; conditions: active ingredient amount 31 g/ha, 14th day after application, visual, 0 = non-treated, 100 = complete kill
Outline: as §2

rice (Oryza sativa L.) [16] = experiment: as above; conditions: active ingredient amount 31 g/ha, 14th day after application, visual, 0 = non-treated, 100 = complete kill
Outline: as §3

[17] = tested on: soybean (Glycine max Merr.); experiment: as above; conditions: active ingredient amount 31 g/ha, 14th day after application, visual, 0 = non-treated, 100 = complete kill
Outline: as §3

[18] = tested on: wheat (Triticum aestivum L.); experiment: as above; conditions: active ingredient amount 31 g/ha, 14th day after application, visual, 0 = non-treated, 100 = complete kill
Outline: as §2

[19] = tested on: green foxtail (Setaria viridis L.); experiment: as above; conditions: active ingredient amount 31 g/ha, 14th day after application, visual, 0 = non-treated, 100 = complete kill
Outline: as §3

[20] = tested on: italian ryegrass (Lolium multiflorum Lam.); experiment: as above; conditions: active ingredient amount 31 g/ha, 14th day after application, visual, 0 = non-treated, 100 = complete kill
Outline: as §2

Structure (SMILES): CCn1nc(C)c(OC(C)=O)c(-c2cc(Oc3cnc4cc(Cl)ccc4n3)ccc2C)c1=O [Compound 3-97]
- Growth inhibition rate (%) Redroot pigweed [1]: 0%
- Growth inhibition rate (%) Corn (corn (Zea mays L.) [2]): 0%
- Growth inhibition rate (%) Barnyardgrass [3]: 95%
- Growth inhibition rate (%) Rice (rice (Oryza sativa L.) [4]): 20%
- Growth inhibition rate (%) Soybean [5]: 0%
- Growth inhibition rate (%) Crabgrass [6]: 93%
- Growth inhibition rate (%) Wheat [7]: 20%
- Growth inhibition rate (%) Green foxtail [8]: 99%
- Growth inhibition rate (%) Velvetleaf [9]: 0%
- Growth inhibition rate (%) Prickly sida [10]: 0%
- Growth inhibition rate (%) Redroot pigweed [11]: 0%
- Growth inhibition rate (%) Corn (corn (Zea mays L.) [12]): 15%
- Growth inhibition rate (%) Wild oat [13]: 100%
- Growth inhibition rate (%) Barnyardgrass [14]: 100%
- Growth inhibition rate (%) Crabgrass [15]: 100%
- Growth inhibition rate (%) Rice (rice (Oryza sativa L.) [16]): 75%
- Growth inhibition rate (%) Soybean [17]: 0%
- Growth inhibition rate (%) Wheat [18]: 95%
- Growth inhibition rate (%) Green foxtail [19]: 100%
- Growth inhibition rate (%) Italian ryegrass [20]: 99%

Reference: patent US10870638B2, “Pyridazinone compound or its salt, and herbicide containing it” (ISHIHARA SANGYO KAISHA, LTD., priority 2016, dated 2020)
